This is an account of results in patent EP4711364A1, “FUSED PYRROLE RING OR FUSED PYRIDINE RING COMPOUND” (Pharmaengine, Inc., priority 2023, dated 2024).

A value given as a limit tells only on which side of the number the result lay.

The subject of one assay is HCC1569. Put plainly: Cell Proliferation Assay (CellTiter-Glo). It is filed as cell-based. Conditions: Homo sapiens, 168 h, CCNE1-amplified breast cancer cell line HCC1569, incubated for 7 days. The protocol:
The sensitivity of cancer cell lines with normal or elevated CCNE1 levels to test compounds was evaluated in a cell proliferation assay. Cell lines were maintained in ATCC-recommended culture media supplemented with 10% FBS and 1% penicillin/streptomycin in a humidified 5% CO2 incubator. All test compounds were stored as 20 mM DMSO stock solutions.
On Day 0, CCNE1-wild type (wt) and CCNE1-amplified (amp) cells were seeded into 384-well plates and incubated for 16 to 24 hours in a humidified 5% CO2 incubator. On Day 1, test compounds were dispensed into wells at specified concentrations (n=2), with DMSO volume normalized to the highest concentration. Plates with compound-treated cells were incubated for 7 days in a humidified 5% CO2 incubator.
On Day 7, plates were removed from the incubator and equilibrated to room temperature. Relative inhibition was assessed by adding CellTiter-Glo reagent. Data were plotted as a percentage of the DMSO control for each compound in each cell line. IC50 values were calculated using a four-parameter nonlinear regression model (GraphPad Prism). Table 1: Cell viability data

Assay [1] concerns the target T1, NanoLuc-PKMYT1 fusion construct (Homo sapiens, UniProt Q99640).
T1 construct: expressed in transfected cells; host or cells: HEK293 (transient expression)
T1 sequence (Q99640 1-499): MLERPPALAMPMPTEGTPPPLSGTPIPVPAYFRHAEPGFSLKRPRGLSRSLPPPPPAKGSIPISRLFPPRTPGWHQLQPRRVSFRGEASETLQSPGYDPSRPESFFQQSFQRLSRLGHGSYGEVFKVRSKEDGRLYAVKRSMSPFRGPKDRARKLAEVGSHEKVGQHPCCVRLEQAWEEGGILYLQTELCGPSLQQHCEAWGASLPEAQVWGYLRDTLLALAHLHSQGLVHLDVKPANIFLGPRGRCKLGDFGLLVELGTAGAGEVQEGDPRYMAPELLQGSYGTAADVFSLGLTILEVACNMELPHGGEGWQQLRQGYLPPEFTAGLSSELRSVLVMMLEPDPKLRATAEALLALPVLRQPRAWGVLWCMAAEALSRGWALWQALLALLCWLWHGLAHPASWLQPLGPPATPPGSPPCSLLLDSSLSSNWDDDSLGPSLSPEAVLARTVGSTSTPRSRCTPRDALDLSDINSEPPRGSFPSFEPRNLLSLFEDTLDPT
Put plainly: cell-based. Format: binding. Conditions: HEK293 cell lines transiently expressing NanoLuc-PKMYT1; NanoBRET tracer; test compounds for 2 hours. The protocol: HEK293 cell lines transiently expressing the NanoLuc-PKMYT1 fusion construct were seeded into wells of a 3 84-well plate. Cells were pretreated with NanoBRET tracer, then treated with test compounds for 2 hours. BRET signals were measured on an Envision multimode plate reader at 450 nm and 610 nm. IC50 values were calculated, and IC50 curves were plotted using GraphPad Prism with a four-parameter nonlinear regression model.

On to `Cc1nc2c3c(c1C)C=CNC(=O)c3c(N)n2-c1c(Cl)cc(F)c2[nH]ncc12` [Compound 136], for which the IC50 was > 1000 nM in the assay with HCC1569 and 21.6 nM in assay [1]. The compound `Cc1cc2c(C(N)=O)c(N)n(-c3c(C)ccc(O)c3C)c2nc1C` [Rp6306, reference compound] displayed an IC50 in the assay with HCC1569 of 18 nM. On to `Cc1ccc2[nH]ncc2c1-n1c(N)c2c3c(c(C)c(C)nc31)C=CNC2=O` [Compound 126], for which the IC50 with HCC1569 came to 666 nM; in assay [1], 5.5 nM. On to `Cc1nc2c3c(c1C)C=CNC(=O)c3c(N)n2-c1c(C)c(F)cc2[nH]ncc12` [Compound 138], for which the IC50 is > 1000 nM in the assay on HCC1569 and 19.8 nM in assay [1]. Consider `Cc1nc2c3c(c1C)C=CNC(=O)c3c(N)n2-c1c(Cl)c(F)cc2[nH]ncc12` [Compound 137], for which the half-inhibitory concentration (IC50) in the assay with HCC1569 came to 566 nM; in assay [1], 22.5 nM.
